Columns and labels:
[1] = U.S. Pat. No. 3,702,831; cited from earlier work
[2] = T1 relaxation time of CSF after injection of nitroxide into spinal cavity of dogs; type: in vivo; set-up: T1 RELAXATION TIME: unit not given here; details: dog; for T1 RELAXATION TIME: average of 4 studies, time 0: 3.11
Protocol: (§1) Dogs (data is the average of 4 independent studies) under general anesthetic were injected with 2 ml of a 10 mM stock solution of 4-(N,N,N-dimethylethylamino)-2,2,6,6-tetramethylpiperidin-oxyl iodide in saline (0.9%) into the spinal cavity (3 cm below the head). At defined times, samples of CSF were removed from a catheter inserted at the point of injection. The samples were analyzed for nitroxide concentration and relaxation times. (A separate experiment determined that charged nitroxides are not bioreduced by CSF fluid. Therefore, the diminution in nitroxide concentration is attributed to active transport from the spinal cavity.) The data obtained are set forth in the table below.

[3] = Stability/pharmacokinetics of nitroxide in the CSF of dogs (nitroxide concentration); type: in vivo; details: 20 umol/animal, dog, average of 4 studies
Protocol: as §1

[4] = NMR image enhancement with nitroxide (cranium and spinal column); type: in vivo; details: dog, 1.5 Tesla whole-body imager; 7, 21, 40, 60 and 90 min post injection, versus control images
Source text: An anesthetized dog (ca. 15 kg) as described in Example 1, in a prone position with front and hind legs extended and the head supported by a pillow in the upright position, was inserted into a small animal coil of a whole-body NMR imager (General Electric 1.5 Teslar instrument). Images of two cross-sections of the cranium and four cross-sections of the spinal column at various points below the point of injection were obtained as controls. The dog was removed from the instrument, injected with the NMR image-enhancing agent as described in Example 1 and the above-described images again obtained at 7, 21, 40, 60 and 90 minutes post injection. […] Because the loss in image enhancement is due to CSF turnover rather than decomposition of the nitroxide or passive diffusion thereof across the spinal cord, this procedure can be employed to study turnover of the CSF.

[5] = 5 min after 2 ml of 10 mM into spinal cavity
[6] = 10 min after 2 ml of 10 mM into spinal cavity
[7] = 20 min after 2 ml of 10 mM into spinal cavity
[8] = 30 min after 2 ml of 10 mM into spinal cavity
[9] = 45 min after 2 ml of 10 mM into spinal cavity
[10] = 60 min after 2 ml of 10 mM into spinal cavity
[11] = 75 min after 2 ml of 10 mM into spinal cavity
[12] = 90 min after 2 ml of 10 mM into spinal cavity
[13] = 150 min after 2 ml of 10 mM into spinal cavity

SMILES: CC(C)(C)N([O])C(C)(C)C [di-tert-butylnitroxide]
- in vivo elimination [1]: rapidly eliminated in vivo

SMILES: CC[N+](C)(C)C1CC(C)(C)N([O])C(C)(C)C1 [4-(N,N,N-dimethylethylamino)-2,2,6,6-tetramethylpiperidinoxyl iodide]
- T1 RELAXATION TIME [2, 5]: 0.904
- T1 RELAXATION TIME [2, 6]: 1.147
- T1 RELAXATION TIME [2, 7]: 1.751
- T1 RELAXATION TIME [2, 8]: 1.942
- T1 RELAXATION TIME [2, 9]: 2.439
- T1 RELAXATION TIME [2, 10]: 2.533
- T1 RELAXATION TIME [2, 11]: 2.546
- T1 RELAXATION TIME [2, 12]: 2.782
- T1 RELAXATION TIME [2, 13]: 2.958
- T1 relaxation time, sufficiency for enhanced NMR image ([2]; 150 min after injection (footnote)): insufficient to obtain an enhanced NMR image
- concentration at 5 min [3, 5]: 3800 µM
- concentration at 10 min [3, 6]: 3300 µM
- concentration at 20 min [3, 7]: 2200 µM
- concentration at 0.5 h [3, 8]: 2000 µM
- concentration at 0.75 h [3, 9]: 1000 µM
- concentration at 1 h [3, 10]: 720 µM
- concentration at 1.25 h [3, 11]: 450 µM
- concentration at 1.5 h [3, 12]: 220 µM
- concentration at 1.75 h ([3]; 105 min after 2 ml of 10 mM into spinal cavity): 70 µM
- concentration at 2.5 h [3, 13]: 30 µM
- NMR image of CSF in spinal column [4]: the CSF fluid in the spinal column was clearly imaged and produced a clear anatomical profile of the spinal column in each image, including the cranial sections and all of the 90 minute images

Source: patent publication US4834964A, “Use of charged nitroxides as NMR image enhancing agents for CSF” (M.R.I., Inc., priority 1986, dated 1989)
